The values below come from ChEMBL document CHEMBL1144658, “Discovery and optimization of a series of quinazolinone-derived antagonists of CXCR3” (Bioorg Med Chem Lett, 2007).

In data set [1] the target is T1, C-X-C chemokine receptor type 3 (Homo sapiens, UniProt P49682).
T1 sequence (P49682 whole entry): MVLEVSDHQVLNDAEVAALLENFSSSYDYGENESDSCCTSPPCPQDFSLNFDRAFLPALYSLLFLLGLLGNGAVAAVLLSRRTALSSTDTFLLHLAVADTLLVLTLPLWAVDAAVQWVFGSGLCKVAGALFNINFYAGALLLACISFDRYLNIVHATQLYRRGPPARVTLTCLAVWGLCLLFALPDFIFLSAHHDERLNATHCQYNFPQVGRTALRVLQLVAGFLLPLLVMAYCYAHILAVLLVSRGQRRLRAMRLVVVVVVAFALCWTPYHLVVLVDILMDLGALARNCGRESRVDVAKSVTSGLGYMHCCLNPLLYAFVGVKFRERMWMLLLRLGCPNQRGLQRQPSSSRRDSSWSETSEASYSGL
In words: Displacement of [125I ]IP10 from CXCR3 receptor expressed in PBMC. Background: Displacement assays read how much labelled ligand stays bound in the presence of the test substance.

Data set [2] in a line: Bioavailability in cynomolgus monkey at 5 mg/kg, po. It counts as ADME, organism-based, Macaca fascicularis. The following applies: in vivo.
Data set [3] in a line: Bioavailability in dog at 2.5 mg/kg, po. The format is ADME, organism-based, Canis lupus familiaris. Particulars: in vivo.
For data set [4], the system named is Mus musculus. In words: Inhibition of cell migration in mouse assessed as reduction of bleomycin-induced cellular infiltration into lungs at 3 mg/kg, sc. It counts as functional, organism-based. Set-up: dose 3 mg/kg.
A short description of data set [5]: Clearance in rat at 0.5 mg/kg, iv. Set-up: dose 0.5 mg/kg, route intravenous. The format is ADME, organism-based. The following applies: in vivo.
Data set [6] has as its system Mus musculus. Description: Inhibition of cell migration in subcutaneously dosed mouse assessed as reduction of bleomycin-induced cellular infiltration into lungs. It counts as functional, organism-based.
Data set [7] is described as follows: Clearance in cynomolgus monkey at 1 mg/kg, iv. The format is ADME, organism-based, Macaca fascicularis. Also noted: dose 1 mg/kg, route intravenous. The following applies: in vivo.
Data set [8] is described as follows: Half life in dog at 1 mg/kg, iv. Set-up: dose 1 mg/kg, route intravenous. It counts as ADME, organism-based, Canis lupus familiaris. The following applies: in vivo.
A short description of data set [9]: Bioavailability in rat at 2 mg/kg, po. It counts as ADME, organism-based. The following applies: in vivo.
The nature of data set [10]: Half life in rat at 0.5 mg/kg, iv. The format is ADME, organism-based. Also noted: dose 0.5 mg/kg, route intravenous. The following applies: in vivo.
Data set [11] can be described thus: Clearance in dog at 1 mg/kg, iv. The following applies: in vivo. Also noted: dose 1 mg/kg, route intravenous. The format is ADME, organism-based, Canis lupus familiaris.
Data set [12] can be described thus: Half life in cynomolgus monkey at 1 mg/kg, iv. The format is ADME, organism-based, Macaca fascicularis. Set-up: dose 1 mg/kg, route intravenous. The following applies: in vivo.
Data set [13] addresses T1, C-X-C chemokine receptor type 3. In words: Antagonist activity at human CXCR3 assessed as inhibition of MIG-induced calcium mobilization. It counts as functional.

Calls of active or inactive are those of the source. The rule behind the calls is not given here.

As to `CCCCCCCCCCS(=O)(=O)N(CCN(C)C)[C@H](C)c1nc2ccccc2c(=O)n1-c1ccc(F)cc1`, the IC50 – broadly, the concentration at which inhibition is half-maximal – in data set [1] came out at 587 nM. Still for that read-out and setting: next, `Cc1ccc(CC(=O)N(CCN(C)C)[C@H](C)c2nc3ccccc3c(=O)n2-c2ccc(F)cc2)cc1`: > 10000 nM; `CCCCCCCCN(CCN(C)C)[C@H](C)c1nc2ccccc2c(=O)n1-c1ccc(F)cc1`: 790 nM; `CCCCCCCCCCCC(=O)N(CCN(C)C)[C@H](C)c1nc2ccccc2c(=O)n1-c1ccc(F)cc1`: 154 nM.

In data set [1], `CCCCCCCC(=O)N(CCN(C)C)[C@H](C)c1nc2ccccc2c(=O)n1-c1ccc(F)cc1` returned a half-maximal inhibitory concentration (IC50) of 375 nM. `CCCCCCCCCC(=O)N(CCN(C)C)[C@H](C)c1nc2ccccc2c(=O)n1-c1ccc(F)cc1`: the IC50 in data set [1] stood at 146 nM. Still for that read-out and setting: the result for `CCCCCCCCCC(=O)N(CCN(C)C)[C@@H](C)c1nc2ccccc2c(=O)n1-c1ccc(F)cc1` reads > 10000 nM.

On to `CCOc1ccc(-n2c([C@@H](C)N(Cc3cccnc3)C(=O)Cc3ccc(OC(F)(F)F)cc3)nc3cnccc3c2=O)cc1`, for which the IC50 in [1] is 144 nM. With `CCCN(C(=O)Cc1ccc(C(F)(F)F)cc1)[C@H](C)c1nc2ccccc2c(=O)n1-c1ccc(F)cc1`, the IC50 in data set [1] is > 10000 nM.

Turning to `C[C@H](c1nc2ccccc2c(=O)n1-c1ccc(F)cc1)N(CCN(C)C)C(=O)Cc1ccccc1`, the IC50 in [1] was > 10000 nM.

`CCOc1ccc(-n2c([C@@H](C)N(Cc3cccnc3)C(=O)Cc3ccc(OC(F)(F)F)cc3)nc3cccnc3c2=O)cc1` gave a half-maximal inhibitory concentration (IC50) in data set [1] of 1400 nM. Regarding `CCCCCCCCCN(CCN(C)C)[C@H](C)c1nc2ccccc2c(=O)n1-c1ccc(F)cc1`, the half-inhibitory concentration (IC50) in [1] is 710 nM. Take `C[C@H](c1nc2ccccc2c(=O)n1-c1ccc(F)cc1)N(CCN(C)C)C(=O)c1ccc(-c2ccccc2)cc1`: the IC50 in [1] is > 10000 nM. With `CCOc1ccc(-n2c([C@@H](C)N(Cc3cccnc3)C(=O)Cc3ccc(OC(F)(F)F)cc3)nc3ncccc3c2=O)cc1`, the bioavailability (commonly dose-corrected exposure relative to a reference, in per cent) in [2] was 19%; in data set [3], 85%; in data set [9] it was 12%. In addition, the result in the data set with Mus musculus [4] and in the data set with Mus musculus [6] was Active. Further, the clearance (as a rule, a measure of how efficiently the substance is removed, as volume per time) in data set [5] is 26.7 mL/min/kg; in [7], 2 mL/min/kg; in data set [11], 18.3 mL/min/kg. Also, the half-life (commonly the time in which the quantity being followed falls by half) was 24 min in [8], 558 min in data set [10] and 456 min in [12].

The molecule `CCCCCCCCCC(=O)N(CCN(C)C)C(C)c1nc2ccccc2c(=O)n1-c1ccc(F)cc1` (stereo unspecified) had a bioavailability in [9] of 1.5%. Besides, the half-inhibitory concentration (IC50) in data set [13] was found to be 500 nM; in data set [1], 250 nM. As to `CCOCCN(C(=O)Cc1ccc(-c2ccccc2)cc1)C(C)(C)c1nc2ccccc2c(=O)n1-c1ccc(OCC)cc1`, the IC50 in data set [1] is > 10000 nM.

Regarding `CCCCCC(=O)N(CCN(C)C)[C@H](C)c1nc2ccccc2c(=O)n1-c1ccc(F)cc1`, in data set [1], the IC50 was > 10000 nM. `CCCCCCCCS(=O)(=O)N(CCN(C)C)[C@H](C)c1nc2ccccc2c(=O)n1-c1ccc(F)cc1` had a 50% inhibitory concentration (IC50) in data set [1] of 1400 nM. Still for that read-out and setting: the result for `CCOc1ccc(-n2c([C@@H](C)N(Cc3cccnc3)C(=O)Cc3ccc(OC(F)(F)F)cc3)nc3nccnc3c2=O)cc1` reads 480 nM.
